{
  "source": "patent US8859582B2",
  "about": "“Bicyclic heterocyclic compounds as protein tyrosine kinase inhibitors” (Astex Therapeutics Limited, priority 2007, dated 2014)",
  "tested_on": "LP-1 cell line",
  "assay": "Cell-based pERK ELISA, LP-1 cells",
  "settings": "LP-1 human multiple myeloma cells, FGF-1/Heparin stimulation; read-out: IC50 against the LP-1 cell line (pERK ELISA)",
  "protocol": "Enzyme buffer A: 8 mM MOPS, pH 7.0, 0.2 mM EDTA, 10 mM MgAcetate Enzyme buffer B: 8 mM MOPS, pH 7.0, 0.2 mM EDTA, 2.5 mM MnCl2, 10 mM MgAcetate Enzyme buffer C: 8 mM Mops, pH 7.0, 0.2 mM EDTA, 10 mM MnCl2, 10 mM MgAcetate. Cell-Based pERK ELISA Method\nLP-1 or JIM-1 multiple myeloma cells were seeded in 96 well plates at 1×10^6 cells/ml in 200 μl per well in serum free media. HUVEC cells were seeded at 2.5×10^5 cells/ml and allowed to recover for 24 h prior to transfer to serum free media. Cells were incubated for 16 h at 37° C. prior to the addition of a test compound for 30 minutes. Test compounds were administered at a 0.1% final DMSO concentration. Following this 30 minute incubation a FGF-1/Heparin (FGF-1 at 100 ng/ml final and Heparin at 100 ug/ml) mixture or VEGF^165 (100 ug/ml) was added to each of the wells for a further 5 minutes. The media was removed and 50 ul ERK ELISA lysis buffer (R and D Systems DuoSet ELISA for pERK and Total ERK #DYC-1940E, DYC-1018E) added. ELISA plates and standards were prepared according to the standard DuoSet protocols and the relative amounts of pERK to total ERK in each sample calculated according to the standard curve.\nIn particular, compounds of the invention were tested against the LP-1 cell line (DSMZ no.: ACC 41) derived from human multiple myeloma.",
  "data": [
    {"smiles": "O=C(c1ccn2c(-c3cccc(Nc4nncs4)c3)cnc2c1)N1CCC1", "note": "[Example 2, Azetidin-1-yl-{3-[3-([1,3,4]thiadiazol-2-ylamino)-phenyl]-imidazo[1,2-a]pyridine-7-yl}-methanone]", "values": [
      {"measurement": "IC50", "result": "< 1", "unit": "µM"}
    ]}
  ]
}
